Experimental data as given in patent US10287295B2, “TGF-β inhibitors” (Rigel Pharmaceuticals, Inc., priority 2015, dated 2019).

Experiments:
HIS-TGF-βR1 T204D = HIS-TGF-βR1 T204D (Homo sapiens (Human), UniProt P36897, T204D); assay: HTRF probe displacement assay, HIS-TGF-βR1 T204D; details: read-out: TGFbr1 IC50, 1 nM HIS-TGF-βR1 T204D, 1 hour at room temperature
[1] = system: TGF-β signaling (TGF-β pSMAD, MPC-11); assay: AlphaScreen SureFire SMAD3 (p-Ser423/425) assay, inhibition of TGF-β signaling; format: cell-based; details: Mus musculus, MPC-11, inhibition of TGF-β signaling, p-SMAD3 readout
[2] = system: GDF8 signaling (GDF pSMAD, MPC11); assay: AlphaScreen SureFire SMAD3 (p-Ser423/425) assay, inhibition of GDF8 signaling; format: cell-based; details: Mus musculus, MPC-11, inhibition of GDF8 signaling, p-SMAD3 readout

Chain of HIS-TGF-βR1 T204D (P36897 34-503 T204D): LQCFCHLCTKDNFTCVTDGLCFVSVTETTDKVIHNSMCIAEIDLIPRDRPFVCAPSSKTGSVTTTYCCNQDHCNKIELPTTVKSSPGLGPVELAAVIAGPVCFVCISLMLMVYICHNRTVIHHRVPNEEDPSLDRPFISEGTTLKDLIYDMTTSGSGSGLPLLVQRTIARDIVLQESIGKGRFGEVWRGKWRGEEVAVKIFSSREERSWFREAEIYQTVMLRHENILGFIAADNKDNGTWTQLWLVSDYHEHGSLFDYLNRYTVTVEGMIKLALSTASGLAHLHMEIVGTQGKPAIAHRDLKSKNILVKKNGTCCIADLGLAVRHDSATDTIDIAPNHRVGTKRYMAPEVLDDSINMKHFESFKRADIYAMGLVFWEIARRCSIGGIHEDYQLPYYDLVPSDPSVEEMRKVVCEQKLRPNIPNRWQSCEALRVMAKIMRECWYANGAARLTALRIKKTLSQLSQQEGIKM

Structure (SMILES)	IC50 (HIS-TGF-βR1 T204D)	IC50 [1]	IC50 [2]
NC(=O)c1cnc2ccc(-c3c(-c4ccc(F)c(Cl)c4)ncn3[C@H]3C[C@@H](O)C3)nn12 [140′, 6-(4-(3-chloro-4-fluorophenyl)-1-((1s,3s)-3-hydroxycyclobutyl)-1H-imidazol-5-yl)imidazo[1,2-b]pyridazine-3-carboxamide]	2.8 nM		
Cc1nc(-c2ccc(F)cc2)c(-c2ccc3ncc(C#N)n3c2)n1CC(F)F [272A′, 6-(1-(2,2-difluoroethyl)-4-(4-fluorophenyl)-2-methyl-1H-imidazol-5-yl)imidazo[1,2-a]pyridine-3-carbonitrile]	251 nM		
COc1ccc(-c2nc(N)sc2-c2ccc3cn[nH]c3c2)cc1 [Compound 173, 5-(1H-indazol-6-yl)-4-(4-methoxyphenyl)thiazol-2-amine]		898 nM	124 nM
Cc1cc(-c2nc(N)sc2-c2ccc3cn[nH]c3c2)ccc1F [Compound 174, 4-(4-fluoro-3-methylphenyl)-5-(1H-indazol-6-yl)thiazol-2-amine]		431 nM	144 nM
Nc1nc(-c2cccc(C(F)(F)F)c2)c(-c2ccc3[nH]ncc3c2)s1 [Compound 175, 5-(1H-indazol-5-yl)-4-(3-(trifluoromethyl)phenyl)thiazol-2-amine]		938 nM	154 nM
Nc1nc(-c2cccc(C(F)(F)F)c2)c(-c2ccc3ncsc3c2)s1 [Compound 176, 5-(benzo[d]thiazol-6-yl)-4-(3-(trifluoromethyl)phenyl)thiazol-2-amine]		600 nM	158 nM
COc1cccc(-c2nc(N)sc2-c2ccc3[nH]ncc3c2)c1 [Compound 177, 5-(1H-indazol-5-yl)-4-(3-methoxyphenyl)thiazol-2-amine]		1040 nM	234 nM
Nc1nc(-c2cccc(F)c2)c(-c2ccc3ncsc3c2)s1 [Compound 178, 5-(benzo[d]thiazol-6-yl)-4-(3-fluorophenyl)thiazol-2-amine]		1100 nM	252 nM
Nc1nc(-c2cccc(F)c2)c(-c2ccc3[nH]ncc3c2)s1 [Compound 179, 4-(3-fluorophenyl)-5-(1H-indazol-5-yl)thiazol-2-amine]		1280 nM	268 nM
Nc1nc(-c2cccc(C(F)(F)F)c2)c(-c2ccc3nccnc3c2)s1 [Compound 180, 5-(quinoxalin-6-yl)-4-(3-(trifluoromethyl)phenyl)thiazol-2-amine]		621 nM	301 nM
Fc1ccc(-c2ncsc2-c2ccc3ncsc3c2)cc1 [Compound 181, 6-(4-(4-fluorophenyl)thiazol-5-yl)benzo[d]thiazole]		4550 nM	336 nM
COc1ccc(-c2nc(N)sc2-c2ccc3nccnc3c2)cc1 [Compound 182, 4-(4-methoxyphenyl)-5-(quinoxalin-6-yl)thiazol-2-amine]		1120 nM	352 nM
Nc1nc(-c2cccc(F)c2)c(-c2ccc3nccnc3c2)s1 [Compound 183, 4-(3-fluorophenyl)-5-(quinoxalin-6-yl)thiazol-2-amine]		1480 nM	365 nM
COc1cccc(-c2nc(N)sc2-c2ccc3nccn3c2)c1 [Compound 184, 5-(imidazo[1,2-a]pyridin-6-yl)-4-(3-methoxyphenyl)thiazol-2-amine]		1160 nM	402 nM
Nc1nc(-c2cccc(C(F)(F)F)c2)c(-c2ccc3cn[nH]c3c2)s1 [Compound 185, 5-(1H-indazol-6-yl)-4-(3-(trifluoromethyl)phenyl)thiazol-2-amine]		2360 nM	425 nM
COc1cccc(-c2nc(N)sc2-c2ccc3ncsc3c2)c1 [Compound 186, 5-(benzo[d]thiazol-6-yl)-4-(3-methoxyphenyl)thiazol-2-amine]		1110 nM	478 nM
Nc1nc(-c2cccc(F)c2)c(-c2ccc3nccn3c2)s1 [Compound 187, 4-(3-fluorophenyl)-5-(imidazo[1,2-a]pyridin-6-yl)thiazol-2-amine]		3100 nM	481 nM
CNc1nc(-c2ccc(F)cc2)c(-c2ccc3nccn3c2)s1 [Compound 188, 4-(4-fluorophenyl)-5-(imidazo[1,2-a]pyridin-6-yl)-N-methylthiazol-2-amine]		365 nM	784 nM
